Columns and labels:
Assay in all cases: Test I pre-/postemergence, mixtures of Cpd. No. 20 with saflufenacil or pyroxasulfone
Assay type in all cases: in vivo
[1] = tested on: soybean (GLXMA; Glycine max, cv. Pioneer 35T58); conditions: for Plant response rating (0 to 100 scale): Preemergence, GLXMA
Source text: (§1) This test evaluated the effect of mixtures of Cpd. No. 20 with saflufenacil or pyroxasulfone on several plant species. Seeds of plant species selected from corn (ZEAMD; Zea mays, cv. ‘Pioneer 1184’), soybean (GLXMA; Glycine max, cv. Pioneer 35T58), giant foxtail (SETFA; Setaria faberi), palmer amaranth (AMAPA; Amaranthus palmeri), common waterhemp (AMATU; Amaranthus rudis), mare's tail (ERICA; Conyza canadensis), and common ragweed (AMBEL; Ambrosia artemisiifolia) were planted in pots containing Tama Silt Loam soil and treated preemergence with a directed soil spray using test chemicals formulated in a non-phytotoxic solvent mixture which included a surfactant.
(§2) At the same time, plants selected from these crop and weed species were planted in pots containing Redi-Earth® planting medium (Scotts Company, 14111 Scottslawn Road, Marysville, Ohio 43041) comprising spaghnum peat moss, vermiculite, wetting agent and starter nutrients and treated postemergence with test chemicals formulated in the same manner. Plants ranged in height from 2 to 10 cm and were in the one- to two-leaf stage for the postemergence treatment. Treated plants and untreated controls were maintained in a greenhouse for approximately 14-21 d, after which time all treated plants were compared to untreated controls and visually evaluated for injury. Plant response ratings, summarized in Tables 11 to 14, are based on a 0 to 100 scale where 0 is no effect and 100 is complete control. A dash (-) response means no test result. Test results are presented as a mean of 4 reps.

[2] = tested on: common ragweed (AMBEL; Ambrosia artemisiifolia); conditions: for Plant response rating (0 to 100 scale): Preemergence, AMBEL
Source text: as §1, §2

[3] = tested on: mare's tail (ERICA; Conyza canadensis); conditions: for Plant response rating (0 to 100 scale): Preemergence, ERICA
Source text: as §1, §2

[4] = tested on: common waterhemp (AMATU; Amaranthus rudis); conditions: for Plant response rating (0 to 100 scale): Preemergence, AMATU
Source text: as §1, §2

[5] = tested on: corn (ZEAMD; Zea mays, cv. ‘Pioneer 1184’); conditions: for Plant response rating (0 to 100 scale): Preemergence, ZEAMD
Source text: as §1, §2

[6] = tested on: palmer amaranth (AMAPA; Amaranthus palmeri); conditions: for Plant response rating (0 to 100 scale): Preemergence, AMAPA
Source text: as §1, §2

[7] = tested on: giant foxtail (SETFA; Setaria faberi); conditions: for Plant response rating (0 to 100 scale): Preemergence, SETFA
Source text: as §1, §2

Compound | GLXMA plant response rating, 0 to 100 scale ([1]; postemergence, 4 g a.i./ha) | GLXMA plant response rating, 0 to 100 scale ([1]; postemergence, 8 g a.i./ha) | AMBEL plant response rating, 0 to 100 scale ([2]; postemergence, 4 g a.i./ha) | AMBEL plant response rating, 0 to 100 scale ([2]; postemergence, 8 g a.i./ha) | ERICA plant response rating, 0 to 100 scale ([3]; postemergence, 4 g a.i./ha) | ERICA plant response rating, 0 to 100 scale ([3]; postemergence, 8 g a.i./ha) | AMATU plant response rating, 0 to 100 scale ([4]; postemergence, 4 g a.i./ha) | AMATU plant response rating, 0 to 100 scale ([4]; postemergence, 8 g a.i./ha) | ZEAMD plant response rating, 0 to 100 scale ([5]; postemergence, 4 g a.i./ha) | ZEAMD plant response rating, 0 to 100 scale ([5]; postemergence, 8 g a.i./ha) | AMAPA plant response rating, 0 to 100 scale ([6]; postemergence, 4 g a.i./ha) | AMAPA plant response rating, 0 to 100 scale ([6]; postemergence, 8 g a.i./ha) | SETFA plant response rating, 0 to 100 scale ([7]; postemergence, 4 g a.i./ha) | SETFA plant response rating, 0 to 100 scale ([7]; postemergence, 8 g a.i./ha) | further results
CC(C)N(C)S(=O)(=O)NC(=O)c1cc(-n2c(=O)cc(C(F)(F)F)n(C)c2=O)c(F)cc1Cl [Saflufenacil, saflufenacil, reference compound] | 74 | 91 | 100 | 100 | 95 | 100 | 85 | 90 | 15 | 70 | 84 | 70 | 23 | 55 | Plant response rating (0 to 100 scale) ([1]; Saflufenacil 4 g a.i./ha alone): 0; Plant response rating (0 to 100 scale) ([1]; Saflufenacil 8 g a.i./ha alone): 0; Plant response rating (0 to 100 scale) ([2]; Saflufenacil 4 g a.i./ha alone): 96; Plant response rating (0 to 100 scale) ([2]; Saflufenacil 8 g a.i./ha alone): 100; Plant response rating (0 to 100 scale) ([3]; Saflufenacil 4 g a.i./ha alone): 94; Plant response rating (0 to 100 scale) ([3]; Saflufenacil 8 g a.i./ha alone): 100; Plant response rating (0 to 100 scale) ([4]; Saflufenacil 4 g a.i./ha alone): 55; Plant response rating (0 to 100 scale) ([4]; Saflufenacil 8 g a.i./ha alone): 84; Plant response rating (0 to 100 scale) ([5]; Saflufenacil 4 g a.i./ha alone): 0; Plant response rating (0 to 100 scale) ([5]; Saflufenacil 8 g a.i./ha alone): 0; Plant response rating (0 to 100 scale) ([6]; Saflufenacil 4 g a.i./ha alone): 35; Plant response rating (0 to 100 scale) ([6]; Saflufenacil 8 g a.i./ha alone): 88; Plant response rating (0 to 100 scale) ([7]; Saflufenacil 4 g a.i./ha alone): 0; Plant response rating (0 to 100 scale) ([7]; Saflufenacil 8 g a.i./ha alone): 0
Cn1nc(C(F)(F)F)c(CS(=O)(=O)C2=NOC(C)(C)C2)c1OC(F)F [Pyroxasulfone, pyroxasulfone, reference compound] | 0 | 15 | 0 | 24 | 0 | 0 | 0 | 0 | 0 | 0 | 15 | 0 | 0 | 6 | GLXMA plant response rating, 0 to 100 scale ([1]; preemergence, 4 g a.i./ha): 0; GLXMA plant response rating, 0 to 100 scale ([1]; preemergence, 8 g a.i./ha): 0; AMBEL plant response rating, 0 to 100 scale ([2]; preemergence, 4 g a.i./ha): 0; AMBEL plant response rating, 0 to 100 scale ([2]; preemergence, 8 g a.i./ha): 0; ERICA plant response rating, 0 to 100 scale ([3]; preemergence, 4 g a.i./ha): 79; ERICA plant response rating, 0 to 100 scale ([3]; preemergence, 8 g a.i./ha): 100; AMATU plant response rating, 0 to 100 scale ([4]; preemergence, 4 g a.i./ha): 5; AMATU plant response rating, 0 to 100 scale ([4]; preemergence, 8 g a.i./ha): 45; ZEAMD plant response rating, 0 to 100 scale ([5]; preemergence, 4 g a.i./ha): 0; ZEAMD plant response rating, 0 to 100 scale ([5]; preemergence, 8 g a.i./ha): 0; AMAPA plant response rating, 0 to 100 scale ([6]; preemergence, 4 g a.i./ha): 0; AMAPA plant response rating, 0 to 100 scale ([6]; preemergence, 8 g a.i./ha): 38; SETFA plant response rating, 0 to 100 scale ([7]; preemergence, 4 g a.i./ha): 76; SETFA plant response rating, 0 to 100 scale ([7]; preemergence, 8 g a.i./ha): 98

— patent US12435044B2, “Pyridazinone herbicides and pyridazinone intermediates used to prepare a herbicide” (FMC Corporation, priority 2018, dated 2025)
